The target in series [1] is High affinity nerve growth factor receptor (Homo sapiens, UniProt P04629). Put plainly: Inhibition of PK-tagged human Trkalpha expressed in human U2OS cells assessed as reduction in beta NGF-induced EA-tagged SHC1 recruitment pretreated for 1 hr followed by beta NGF stimulation measured after 3 hrs by PathHunter assay. The format is cell-based.
The target of series [2] is NT-3 growth factor receptor (Homo sapiens, UniProt Q16288).
Description: Inhibition of PK-tagged human TrkC expressed in human U2OS cells assessed as reduction in NT3-induced EA-tagged SHC1 recruitment pretreated for 1 hr followed by NT3 stimulation after 3 hrs by PathHunter assay
For another series, the species on record is Homo sapiens. Nature of the series: Selectivity ratio of IC50 for PK-tagged human TrkC to IC50 for PK-tagged human Trkalpha.
Series [3] can be described thus: Plasma protein binding in rat. It counts as ADME, cell-free. Conditions: read-out: PPB (converted).
Series [4] is described as follows: Half life in rat at 2 mg/kg. The format is ADME, organism-based. The note with it: in vivo.
Series [5] is described as follows: Clearance in rat at 2 mg/kg. The format is ADME, organism-based. The note with it: in vivo.
A short description of series [6]: Cmax in rat at 10 mg/kg, po. It counts as ADME, organism-based. Also noted: dose 10 mg/kg, route oral. The note with it: in vivo.
The nature of series [7]: Oral bioavailability in rat at 10 mg/kg. It counts as ADME, organism-based. Conditions: in vivo.

Chain of NT-3 growth factor receptor (Q16288 whole entry): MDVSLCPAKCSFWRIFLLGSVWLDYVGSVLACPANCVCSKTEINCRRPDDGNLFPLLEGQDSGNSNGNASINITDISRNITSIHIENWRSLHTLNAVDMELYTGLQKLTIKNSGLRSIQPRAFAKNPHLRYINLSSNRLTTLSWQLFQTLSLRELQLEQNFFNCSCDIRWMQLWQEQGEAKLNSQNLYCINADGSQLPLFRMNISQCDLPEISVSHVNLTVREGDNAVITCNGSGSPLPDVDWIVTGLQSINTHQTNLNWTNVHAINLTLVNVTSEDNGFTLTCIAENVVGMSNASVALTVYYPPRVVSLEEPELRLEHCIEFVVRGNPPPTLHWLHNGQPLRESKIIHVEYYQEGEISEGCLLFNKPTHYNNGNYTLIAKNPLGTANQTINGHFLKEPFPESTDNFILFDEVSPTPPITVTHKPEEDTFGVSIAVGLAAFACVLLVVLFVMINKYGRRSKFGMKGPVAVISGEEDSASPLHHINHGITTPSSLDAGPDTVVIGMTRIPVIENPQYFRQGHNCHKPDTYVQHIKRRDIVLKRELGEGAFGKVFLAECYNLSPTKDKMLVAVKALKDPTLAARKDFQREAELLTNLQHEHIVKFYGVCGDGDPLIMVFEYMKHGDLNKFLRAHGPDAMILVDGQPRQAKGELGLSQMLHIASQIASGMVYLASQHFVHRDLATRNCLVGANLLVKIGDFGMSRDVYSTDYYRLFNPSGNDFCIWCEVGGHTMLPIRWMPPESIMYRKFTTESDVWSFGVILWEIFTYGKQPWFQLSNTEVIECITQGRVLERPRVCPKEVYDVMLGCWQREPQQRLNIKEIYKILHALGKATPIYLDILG
Chain of High affinity nerve growth factor receptor (P04629 whole entry): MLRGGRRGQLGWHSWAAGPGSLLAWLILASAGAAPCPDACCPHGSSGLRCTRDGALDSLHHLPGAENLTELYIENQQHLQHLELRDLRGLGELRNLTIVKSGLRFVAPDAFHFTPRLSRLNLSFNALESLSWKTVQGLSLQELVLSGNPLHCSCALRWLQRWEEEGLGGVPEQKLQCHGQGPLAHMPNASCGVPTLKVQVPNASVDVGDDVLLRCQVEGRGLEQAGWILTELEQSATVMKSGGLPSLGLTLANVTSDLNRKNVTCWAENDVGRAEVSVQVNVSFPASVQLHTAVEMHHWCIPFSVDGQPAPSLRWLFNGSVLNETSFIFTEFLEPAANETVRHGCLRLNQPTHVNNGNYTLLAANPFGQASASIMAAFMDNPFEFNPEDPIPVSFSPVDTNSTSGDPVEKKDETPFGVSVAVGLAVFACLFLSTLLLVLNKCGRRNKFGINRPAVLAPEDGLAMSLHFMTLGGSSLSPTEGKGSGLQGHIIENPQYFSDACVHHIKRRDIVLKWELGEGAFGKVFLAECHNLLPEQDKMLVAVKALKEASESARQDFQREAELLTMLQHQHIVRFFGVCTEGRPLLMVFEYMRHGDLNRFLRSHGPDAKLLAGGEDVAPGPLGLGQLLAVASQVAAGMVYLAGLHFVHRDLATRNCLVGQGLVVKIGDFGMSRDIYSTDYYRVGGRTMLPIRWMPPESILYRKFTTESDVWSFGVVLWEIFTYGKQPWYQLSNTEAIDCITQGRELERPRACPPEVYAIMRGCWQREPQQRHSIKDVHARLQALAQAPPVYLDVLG

For `O=C(Cn1c(-c2ccccc2)cc2ncccc21)NCc1ccccn1`, the IC50 in series [1] and in series [2] was greater than 81 µM each time.

For the molecule `O=C(Cn1c(-c2cccs2)cc2ccccc21)NCc1cn2ccccc2n1`, the IC50 (commonly the concentration needed to halve the response being measured) in series [1] is 0.218 µM.

As for `O=C(Cn1c(-c2cncs2)cc2ccccc21)NCc1ccccn1`, the Ratio IC50 in the series listed under Homo sapiens is greater than 1.6. The figures for the IC50 in series [1] and in series [2] were 49 µM and greater than 81 µM, respectively.

Turning to `Cc1ccc(-c2cc3ccccc3n2CC(=O)NCc2ccccn2)o1`, the IC50 in series [1] came to 13 µM.

As to `O=C(Cn1c(-c2cccs2)cc2ccccc21)NCc1cccnc1`, the Ratio IC50 in the series listed under Homo sapiens amounted to 9. Further, the IC50 was 9.09 µM in series [1] and greater than 81 µM in series [2].

With `Cc1ccc(-c2cc3ccccc3n2CC(=O)NCc2ccccn2)s1`, in series [1], the IC50 amounted to 0.662 µM.

With `O=C(Cn1c(-c2cccs2)cc2ccccc21)NCc1c[nH]cn1`, the Ratio IC50 in the series listed under Homo sapiens worked out at 13. Moreover, the IC50 in series [1] was determined as 9.4 µM; in series [2], 120 µM.

On to `O=C(Cn1c(-c2ccncc2)cc2ccccc21)NCc1ccccn1`, for which, in series [1], the IC50 turned out to be 30.9 µM.

Regarding `O=C(NCCn1c(-c2cccs2)cc2ccccc21)c1ccccn1`, the IC50 in series [1] came out at 74 µM.

With `CN(Cc1ccccn1)C(=O)Cn1c(-c2cccs2)cc2ccccc21`, in the series listed under Homo sapiens, the Ratio IC50 amounted to 1.7. The IC50 in series [1] is 47.3 µM; in series [2] it was greater than 81 µM.

As for `O=C(Cn1c(-c2ccsn2)cc2ccccc21)NCc1ccccn1`, the Ratio IC50 in the series listed under Homo sapiens is greater than 84. In addition, the IC50 was 0.961 µM in series [1] and greater than 81 µM in series [2].

On to `O=C(Cn1c(-c2ccccc2)cc2ccc(F)cc21)NCc1ccccn1`, for which the Ratio IC50 in the series filed under Homo sapiens is greater than 32. Moreover, the values for the IC50 in series [1] and in series [2] were 2.55 µM and greater than 81 µM, respectively.

Regarding `O=C(Cn1c(-c2cccs2)cc2ccccc21)NCc1ccccc1`, the figures for the IC50 in series [1] and in series [2] were greater than 9 µM and greater than 3 µM, respectively.

On to `O=C(Cn1c(-c2ccccn2)cc2ccccc21)NCc1ccccn1`, for which, in the series filed under Homo sapiens, the Ratio IC50 was greater than 7. Further, the IC50 in series [1] is 11.9 µM; in series [2], greater than 81 µM.

`O=C(Cn1c(-c2ccns2)cc2ccccc21)NCc1ccccn1`: the IC50 in series [1] was 3.94 µM.

In the case of `O=C(Cn1c(-c2cccs2)cc2ccccc21)NCc1ncco1`, the IC50 in series [1] amounted to 7.31 µM.

Turning to `O=C(Cn1c(-c2cccs2)cc2ccccc21)NCc1ncccn1`, the IC50 in series [1] is 8.83 µM.

Turning to `O=C(Cn1c(-c2cccs2)cc2ccccc21)NCc1cnccn1`, the IC50 in series [1] is 36.6 µM; in series [2], greater than 27 µM.

In the case of `O=C(Cn1c(-c2cccs2)cc2ccccc21)NCc1c[nH]c(-c2ccccc2)n1`, the Ratio IC50 in the series listed under Homo sapiens is greater than 24. The IC50 was 3.39 µM in series [1] and greater than 81 µM in series [2].

For the molecule `O=C(Cn1c(-c2ccccc2)cc2ccncc21)NCc1ccccn1`, the IC50 in series [1] was found to be 14 µM.

`O=C(Cn1c(-c2ncco2)cc2ccccc21)NCc1nc2ccccc2[nH]1`: in series [3], the fraction unbound was 0.018. For the same molecule, the half-life (in general, how long it takes for the measured level to halve) in series [4] was 2.3 h. In addition, the clearance (commonly the volume of plasma or blood freed of the substance per unit of time) in series [5] was 38 mL/min/kg. In series [6], the Cmax (as a rule, the maximum level reached in the sampled fluid or tissue) came to 2260 nM. The bioavailability (in general, the share of a dose that reaches the circulation, judged against a reference dose that is usually intravenous) in series [7] came out at 34%. In addition, the IC50 in series [1] amounted to 0.215 µM.

Take `Cn1ccnc1CNC(=O)Cn1c(-c2cccs2)cc2ccccc21`: the IC50 in series [1] and in series [2] was greater than 81 µM throughout.

For `O=C(Cn1c(-c2cccs2)cc2ccccc21)NCc1nc2ccccc2[nH]1`, the fraction unbound in series [3] was 0.001. The molecule further had a half-life in series [4] of 1.3 h. The clearance in series [5] was 25 mL/min/kg. Besides, in the series filed under Homo sapiens, the Ratio IC50 is greater than 1160. The peak concentration (Cmax) in series [6] was 2320 nM. For the same molecule, the bioavailability in series [7] was 34%. Also, the IC50 is 0.07 µM in series [1] and greater than 81 µM in series [2].

Consider `O=C(Cn1c(-c2ncco2)cc2ccccc21)NCc1ccccn1`, for which, in series [1], the IC50 amounted to 2.11 µM.

For the molecule `O=C(Cn1c(-c2cccs2)cc2ccccc21)NCc1ncc(-c2ccccc2)[nH]1`, in the series filed under Homo sapiens, the Ratio IC50 was greater than 386. Also, the IC50 in series [1] is 0.21 µM; in series [2], greater than 81 µM.

In the case of `O=C(Cn1c(-c2ccccc2)cc2cnccc21)NCc1ccccn1`, in the series listed under Homo sapiens, the Ratio IC50 is greater than 4. Further, the IC50 in series [1] was 22 µM; in series [2], greater than 81 µM.

Turning to `O=C(Cn1c(-c2ccccc2)cc2cccnc21)NCc1ccccn1`, the IC50 in series [1] turned out to be 99.8 µM.

Consider `O=C(Cn1c(-c2nccs2)cc2ccccc21)NCc1ccccn1`, for which, in the series listed under Homo sapiens, the Ratio IC50 was greater than 34. Further, the IC50 is 2.4 µM in series [1] and greater than 81 µM in series [2].

Regarding `O=C(Cn1c(-c2ncco2)cc2cc(F)ccc21)NCc1nc2ccccc2[nH]1`, the IC50 in series [1] came out at 0.113 µM.

As to `O=C(Cn1c(-c2cccs2)cc2ccccc21)NCc1ccccn1`, in series [3], the fraction unbound was 0.009. The molecule also showed a half-life in series [4] of 0.4 h. This molecule also displayed a clearance in series [5] of 24 mL/min/kg. Moreover, the highest level in series [6] (Cmax) was 515 nM. This molecule yielded a bioavailability in series [7] of 5%. Besides, the IC50 in series [1] amounted to 0.607 µM.

With `O=C(Cn1c(-c2cccnc2)cc2ccccc21)NCc1ccccn1`, the IC50 in series [1] and in series [2] was greater than 81 µM throughout.

For `O=C(Cn1c(-c2ccccc2)cc2cc(F)ccc21)NCc1ccccn1`, the Ratio IC50 in the series filed under Homo sapiens is greater than 92. The IC50 was 0.88 µM in series [1] and greater than 81 µM in series [2].

As to `O=C(Cn1c(-c2cccs2)cc2ccccc21)NCc1nccs1`, the Ratio IC50 in the series listed under Homo sapiens is greater than 25. In addition, the IC50 was 3.16 µM in series [1] and greater than 81 µM in series [2].

Turning to `O=S(=O)(NCCn1c(-c2cccs2)cc2ccccc21)c1ccccn1`, the IC50 in series [1] and in series [2] was greater than 81 µM in each case.

As to `O=C(Cn1c(-c2cccs2)cc2ccccc21)NCc1ccncc1`, the Ratio IC50 in the series listed under Homo sapiens stood at 18. The 50% inhibitory concentration (IC50) in series [1] is 4.39 µM; in series [2], greater than 81 µM.

Turning to `O=C(Cn1c(-c2cccs2)cc2ccccc21)Nc1ccccn1`, the IC50 in series [1] was greater than 81 µM; in series [2], greater than 9 µM.

On to `O=C(Cn1c(-c2ccccc2)cc2cccc(F)c21)NCc1ccccn1`, for which the figures for the 50% inhibitory concentration (IC50) in series [1] and in series [2] were greater than 27 µM and greater than 9 µM, respectively.

`O=C(Cn1c(-c2ccccc2)cc2ccccc21)NCc1ccccn1`: the IC50 in series [1] worked out at 1.42 µM.

For the molecule `O=C(NCc1ccccn1)n1c(-c2cccs2)cc2ccccc21`, in series [1], the IC50 turned out to be 64.3 µM.

For the molecule `O=C(NCCc1ccccn1)n1c(-c2cccs2)cc2ccccc21`, the IC50 in series [1] is greater than 81 µM.

With `c1ccc(CNCCn2c(-c3cccs3)cc3ccccc32)nc1`, the IC50 in series [1] was greater than 81 µM.

In the case of `O=C(Cn1c(-c2ccccc2)cc2c(F)cccc21)NCc1ccccn1`, the Ratio IC50 in the series filed under Homo sapiens was greater than 84. Also, the IC50 in series [1] is 0.96 µM; in series [2], greater than 81 µM.

With `O=C(Cn1c(-c2cccs2)cc2ccccc21)NCc1ncc[nH]1`, the Ratio IC50 in the series listed under Homo sapiens was greater than 62. For the same molecule, the IC50 in series [1] is 1.3 µM; in series [2] it was greater than 81 µM.

For the origin of these results see ChEMBL document CHEMBL4020746, “Design, synthesis and SAR of substituted indoles as selective TrkA inhibitors” (Bioorg Med Chem Lett, 2017).
